Results: PubChem BioAssay (NCI)
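Five concentrations, 48 hours, 96-well plates. GI50 = concentration required for 50% inhibition of growth. At the TGI there is no net growth.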

Legend:
Test in all cases: growth of human tumour cells (NCI), 48 h
SF-268 CNS = system: SF-268 CNS
BT-549 breast = system: BT-549 breast
HS 578T breast = system: HS 578T breast
TK-10 renal = system: TK-10 renal
A549 NSCLC = system: A549 NSCLC
MOLT-4 leukemia = system: MOLT-4 leukemia
ACHN renal = system: ACHN renal
OVCAR-4 ovarian = system: OVCAR-4 ovarian
U251 CNS = system: U251 CNS
MCF7 breast = system: MCF7 breast

Compound	TGI (SF-268 CNS)	TGI (BT-549 breast)	TGI (HS 578T breast)	TGI (TK-10 renal)	TGI (A549 NSCLC)	TGI (MOLT-4 leukemia)	TGI (ACHN renal)	TGI (OVCAR-4 ovarian)	TGI (U251 CNS)	TGI (MCF7 breast)	GI50 (SF-268 CNS)	GI50 (BT-549 breast)	GI50 (HS 578T breast)	GI50 (TK-10 renal)	GI50 (A549 NSCLC)	GI50 (MOLT-4 leukemia)	GI50 (ACHN renal)	GI50 (OVCAR-4 ovarian)	GI50 (U251 CNS)	GI50 (MCF7 breast)
O=C(O)/C=C/c1ccc(Oc2ccccc2C(=O)O)o1	> 10 µM	> 10 µM	> 10 µM	> 10 µM	> 10 µM	> 10 µM	> 10 µM	> 10 µM	> 10 µM	> 10 µM	–	–	–	–	–	–	–	–	–	–
C(=N\Nc1ncc(-c2cc3cc4c(cc3o2)OCO4)s1)/c1ccco1	23.1 µM	15.2 µM	22.2 µM	24.7 µM	6.87 µM	14.5 µM	11.3 µM	12.2 µM	14.5 µM	7.18 µM	2.67 µM	3.43 µM	2.74 µM	3.38 µM	1.79 µM	0.946 µM	1.85 µM	1.27 µM	2.9 µM	0.683 µM
Fc1cccc(COc2ccc(Nc3ncnc4onc(-c5ccccc5)c34)cc2)c1	> 100 µM	> 100 µM	2.02 µM	36.1 µM	> 100 µM	> 100 µM	> 100 µM	> 100 µM	> 86.8 µM	> 100 µM	0.384 µM	0.347 µM	0.0974 µM	1.21 µM	0.175 µM	0.27 µM	3.38 µM	0.988 µM	0.215 µM	0.0393 µM
Cc1ccc(OP(=O)(Oc2ccc(C)cc2)N2C=Cc3ccccc3C2C#N)cc1 (stereo not given)	> 100 µM	> 100 µM	> 100 µM	> 100 µM	> 100 µM	> 100 µM	> 100 µM	> 100 µM	> 100 µM	> 100 µM	–	–	–	–	–	–	–	–	–	–
COc1cc(-n2ccnc2-c2ccc3ccccc3c2)cc(OC)c1OC	49.8 µM	14.9 µM	10.5 µM	45.2 µM	> 45.4 µM	> 50.9 µM	49 µM	> 86.2 µM	21.5 µM	> 45.8 µM	0.182 µM	0.246 µM	0.135 µM	0.936 µM	0.12 µM	0.284 µM	2.6 µM	6.32 µM	0.0907 µM	< 0.0199 µM
CC1(C)N=C(N)N=C(N)N1c1ccc(CNC(=O)Nc2ccc(S(=O)(=O)F)c(Cl)c2)c(Cl)c1	> 100 µM	> 100 µM	> 100 µM	> 100 µM	> 100 µM	> 100 µM	> 100 µM	> 100 µM	> 100 µM	> 100 µM	0.686 µM	8.51 µM	21.8 µM	8.39 µM	0.56 µM	0.954 µM	5.28 µM	4.57 µM	0.51 µM	0.536 µM
CC(C)(C)OC(=O)NCC(CNC(=O)OC(C)(C)C)C(N)=O	> 100 µM	> 100 µM	> 100 µM	> 100 µM	> 100 µM	> 100 µM	> 100 µM	> 100 µM	> 100 µM	> 100 µM	–	–	–	–	–	–	–	–	–	–
CCOC(=O)c1[nH]c2cc(Cl)ccc2c1[C@@H](C(=O)NC(C)(C)C)N(CC)C(=O)CCCCC#Cc1cccc2c1CN(C1CCC(=O)NC1=O)C2=O (stereo not given in full)	28.7 µM	4.81 µM	6.66 µM	16.1 µM	> 89.4 µM	0.0152 µM	13.3 µM	23.5 µM	18.1 µM	> 100 µM	0.0476 µM	< 0.0197 µM	< 0.01 µM	2.65 µM	1.3 µM	< 0.01 µM	1.42 µM	< 0.01 µM	1.84 µM	0.117 µM
COC[C@H](NC(=O)c1cnc(C)s1)C(=O)N[C@@H](COC)C(=O)N[C@@H](Cc1ccccc1)C(=O)[C@@]1(C)CO1	> 100 µM	42.6 µM	> 100 µM	> 72.2 µM	> 100 µM	> 100 µM	> 100 µM	> 100 µM	> 100 µM	> 100 µM	48.4 µM	14.3 µM	26.5 µM	27.3 µM	42.9 µM	23.8 µM	34.8 µM	44.4 µM	47.8 µM	11.1 µM
OC1CC2CCC(C1)N2CCCN1c2ccccc2Sc2ccc(Cl)cc21 (stereo not given)	6.23 µM	10.7 µM	4.59 µM	3.61 µM	7.45 µM	5.8 µM	7.07 µM	13.6 µM	3.45 µM	3.3 µM	–	–	–	–	–	–	–	–	–	–
CSc1ccc(C2=NN(C(C)=O)C(c3ccc(-c4cc(Cl)c(Cl)cc4Cl)o3)C2)cc1 (stereo not given)	32.2 µM	30.8 µM	53 µM	50.3 µM	33 µM	35.3 µM	29.9 µM	26.8 µM	30.6 µM	26.5 µM	16.3 µM	16.6 µM	22.8 µM	24.8 µM	17 µM	12.1 µM	15.8 µM	13.4 µM	16.9 µM	12.5 µM
Cc1ccc(S(=O)(=O)ON2C(=O)c3cccc4cc([N+](=O)[O-])cc(c34)C2=O)cc1	> 100 µM	> 100 µM	> 100 µM	> 100 µM	> 100 µM	> 100 µM	> 100 µM	> 100 µM	> 100 µM	> 100 µM	–	–	–	–	–	–	–	–	–	–
CC(=O)O.CN1[CH-]N(Cc2ccc(C#N)cc2)c2ccccc21.[Ag+]	> 100 µM	38.4 µM	> 100 µM	32 µM	> 100 µM	68.2 µM	30.2 µM	32.8 µM	36.4 µM	51.7 µM	72 µM	18.8 µM	> 100 µM	18 µM	32.3 µM	26.1 µM	16.3 µM	15.8 µM	17.2 µM	17.8 µM
Cc1ccc(CNc2ccc3nc(CCC4CCCCC4)[nH]c3c2)cc1	> 100 µM	7.34 µM	7.06 µM	10.4 µM	17.6 µM	9.71 µM	9.65 µM	18.7 µM	3.62 µM	6.24 µM	3.08 µM	2.45 µM	2.16 µM	2.87 µM	3.02 µM	2.76 µM	3.09 µM	3.23 µM	1.79 µM	2.14 µM
